Reference: US20190153051A1, “FUSION PROTEIN OF C2 DOMAIN AND AKT KINASE DOMAIN FRAGMENT AND USE THEREOF” (Gachon University of Industry-Academic Cooperation …, priority 2017, published 2019)

Assays:
human HepG2 cells [1] = assay: Intracellular calcium level with Fluo-3 AM in PA-treated HepG2 cells; format: cell-based; conditions: PA 0, 100, 300 or 500 μM, 24 hours
Method: First, male C57BL/6 mice at 8 weeks (Orient Bio, Korea) were raised in an animal facility of Lee Gil Ya Cancer and Diabetes Institute (Gachon University, Korea). Particularly, the mice were raised in a sterile chamber at the temperature of 23±1° C., with 12 hr/12 hr light/dark cycle, and free dietary environment. At this time, the mice were divided into the fasted group wherein the mice were fasted for 16 hours and the refed group wherein the mice were fasted for 16 hours and then fed for 4 hours. Each group was sub-divided into the high fat diet group (HFD) and the normal diet group (chow). The high fat diet group (HFD) mice were fed with diet containing 60% fat, while the normal diet group (chow) mice were fed with diet containing 10% fat. 8 weeks later, the mice were anesthetized and the liver was perfused by using buffer 1 (142 mM NaCl, 6.7 mM KCl, 10 mM HEPES and 2.5 mM EGTA, pH 7.4). Buffer 1 above was replaced with buffer 2 (0.5 mg/Me collagen, 66.7 mM NaCl, 6.7 mM KCl, 10 mM HEPES and 4.8 mM CaCl, pH 7.6), and then the perfused liver was extracted. The extracted liver was washed and degraded by using Percoll cushion gradient. The degraded cells were suspended and cultured in Hepatozyme-SFM (Gibco-BRL, USA) culture medium supplemented with 10% FBS and 1% antibiotics and antifungal agent. […] The mounted cells were analyzed using a fluorescence microscope (Zeiss Axioplan 2). […]

Akt protein = assay: Western blotting of Akt protein phosphorylation in insulin-treated HepG2 cells; format: cell-based, human; conditions: HepG2, PA 24 hours, 100 nM insulin; compared with insulin alone
Method: First, male C57BL/6 mice at 8 weeks were divided into the fasted group wherein the mice were fasted for 16 hours and the refed group wherein the mice were fasted for 16 hours and then fed for 4 hours. Each group was sub-divided into the high fat diet group (HFD) and the normal diet group (chow). The liver cells were extracted from the raised mice by the same manner and under the same conditions as described in Example 1. The extracted liver cells were lysed in a lysis buffer containing phosphatase (Sigma-Aldrich, USA) and protease inhibitor (Sigma-Aldrich, USA). Proteins extracted from 2 to 3 mg of the liver tissue were homogenized by using a tissue homogenizer (TissuLyser, Qiagen, USA) for 1.5 minutes at a frequency of 1/30 sec. The homogenized lysate was centrifuged at 12,000 rpm for 15 minutes and the supernatant was obtained. The amount of the extracted protein was quantified by using a protein assay kit (Bio-Rad Laboratories, USA), and at this time BSA was used as a standard sample. 3 mg of the protein was mixed with 6× loading buffer, followed by electrophoresis using 10% SDS-PAGE gel. The electrophoresed protein was transferred onto a polyvinylidene fluoride (PVDF) membrane by using a transfer buffer at 4° C. with 120 V for 1.5 hours. The PVDF membrane on which the protein was transferred was pretreated with a blocking buffer prepared by mixing 5% skim milk with TBS buffer (TBS-T, pH 7.6) supplemented with Tween 20 for 30 minutes, and the membrane was washed with TBS-T. The washed membrane was added with the antibody against Akt (Cell Signaling Technology, USA), Akt(T308) (Cell Signaling Technology, USA), Akt(S473) (Cell Signaling Technology, USA), FOXO3A (Cell Signaling Technology, USA), FOXO3A(S253) (Cell Signaling Technology, USA), GSK-3β (Cell Signaling Technology, USA) or GSK-3β(S9) (Cell Signaling Technology, USA) protein as a primary antibody, followed by reaction at 4° C. for 12 hours. At this time, the antibody against actin (Santa Cruz Biotechnology, USA) protein was used for the control group. Upon completion of the reaction, the secondary antibody corresponding to the primary antibody was added thereto, followed by reaction at room temperature for 30 minutes. The PVDF membrane was washed with TBS-T buffer three times. The washed PVDF membrane was added with ECL solution (Thermo Scientific, USA), followed by image observation.
To investigate the changes in insulin sensitivity when insulin was added to the fatty liver cell model constructed in vitro, the phosphorylations of those proteins that were involved in insulin signaling mechanism were examined. PA was added to the human HepG2 cells prepared in Example 3, followed by reaction for 24 hours. […]

human HepG2 cells [2] = assay: Intracellular calcium dynamics with Fura-2 AM in insulin resistance induced cells; format: cell-based
Method: First, human HepG2 cells were cultured in DMEM (Dulbecco's Modified Eagle Medium) supplemented with 10% fetal bovine serum (FBS), 25 mM glucose, 2 mM L-glutamine, 100 U/Ml of penicillin and 100 μg/Ml of streptomycin. At this time, the culture was performed in a 37° C., 5% CO2 incubator. The cultured cells were distributed in a culture plate at the density of 5.0×10^5 cells/well, followed by further culture for overnight. Palmitic acid (PA) was added to the plate at the concentration of 0, 100, 300 or 500 μM, followed by reaction for 24 hours. Then, the concentration of calcium was investigated by using Fluo-3 AM according to the same conditions and procedures as described in Example 1, and the results are shown in FIG. 2A and FIG. 2B. Intracellular calcium dynamics was confirmed in the fatty liver cell model constructed in vitro by inducing insulin resistance. At this time, the experiment was performed by the same manner under the same conditions as described in Example 3 except that Fura-2 AM was used instead of Fluo-3 AM.

SMILES: CCCCCCCCCCCCCCCC(=O)O [PA, Palmitic acid]
- concentration of calcium in the cytoplasm (human HepG2 cells [1]): increased
- Akt protein phosphorylation (Akt protein): significantly inhibited
- intracellular calcium concentration (human HepG2 cells [2]): significantly increased
